Results: ChEMBL document CHEMBL1201862, “PubChem BioAssay data set” (2004)
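Method: 48-hour compound exposure of cells in 96-well plates, five concentrations, linear interpolation of endpoints. GI50 is the concentration that inhibits growth by half.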 The source made the active and inactive calls. Rule as the data show it: active = GI50 up to about 1.1 µM and inactive = higher.

What was measured:
Experiment in all cases: DTP human tumour cell line panel, 48 h
Malme-3M = system: Malme-3M
MDA-N = system: MDA-N
PC-3 = system: PC-3
UO-31 = system: UO-31
HL-60 = system: HL-60
SF-539 = system: SF-539
U-251 = system: U-251
SF-268 = system: SF-268
HT-29 = system: HT-29
MDA-MB-435 = system: MDA-MB-435
SN12C = system: SN12C
COLO 205 = system: COLO 205
HOP-62 = system: HOP-62
OVCAR-3 = system: OVCAR-3
SK-MEL-28 = system: SK-MEL-28
K562 = system: K562
ACHN = system: ACHN
T47D = system: T47D
NCI/ADR-RES = system: NCI/ADR-RES
BT-549 = system: BT-549

| Compound | GI50 (Malme-3M) | GI50 (MDA-N) | GI50 (PC-3) | GI50 (UO-31) | GI50 (HL-60) | GI50 (SF-539) | GI50 (U-251) | GI50 (SF-268) | GI50 (HT-29) | GI50 (MDA-MB-435) | GI50 (SN12C) | GI50 (COLO 205) | GI50 (HOP-62) | GI50 (OVCAR-3) | GI50 (SK-MEL-28) | GI50 (K562) | GI50 (ACHN) | GI50 (T47D) | GI50 (NCI/ADR-RES) | GI50 (BT-549) |
| --- | --- | --- | --- | --- | --- | --- | --- | --- | --- | --- | --- | --- | --- | --- | --- | --- | --- | --- | --- | --- |
| CO[C@@H]1C[C@H]2[C@@H]3CC[C@H]([C@@H](C)CO)[C@@]3(C)CC[C@@H]2[C@@]2(C)CC[C@H]3C[C@]312 | 19.5 µM (inactive) | 34.7 µM (inactive) | 22.6 µM (inactive) | 39.8 µM (inactive) | 25.2 µM (inactive) | 43.1 µM (inactive) | 14.6 µM (inactive) | 67 µM (inactive) | 18.5 µM (inactive) | 27.5 µM (inactive) | 33 µM (inactive) | 17.6 µM (inactive) | 46.8 µM (inactive) | 45.1 µM (inactive) | 27.6 µM (inactive) | 22.8 µM (inactive) | 26.5 µM (inactive) | 20 µM (inactive) | 24.9 µM (inactive) |  |
| CCCCc1ccc(Nc2nc(S)c3[nH]cnc3n2)cc1 | 22 µM (inactive) |  | 29.7 µM (inactive) | 28.1 µM (inactive) | 27.9 µM (inactive) | 20.3 µM (inactive) | 24.7 µM (inactive) | 50.7 µM (inactive) | 10.3 µM (inactive) | 17.1 µM (inactive) | 22.8 µM (inactive) | 16.6 µM (inactive) |  | 16.1 µM (inactive) | 22.9 µM (inactive) | 43.4 µM (inactive) | 23.1 µM (inactive) | 15.6 µM (inactive) | 13.4 µM (inactive) | 17.4 µM (inactive) |
| C/C(=N\O)c1ccc(OCc2cc(C(F)(F)F)cc(C(F)(F)F)c2)cc1 | 41 µM (inactive) | 37.2 µM (inactive) | 34.1 µM (inactive) | > 100 µM (inactive) | 4.13 µM (inactive) | 60.5 µM (inactive) | 34.4 µM (inactive) | 43.2 µM (inactive) | 20.1 µM (inactive) | 43.8 µM (inactive) | 46.2 µM (inactive) | 29.9 µM (inactive) | 50.1 µM (inactive) | > 100 µM (inactive) | 61.9 µM (inactive) | 33 µM (inactive) | 25.5 µM (inactive) | 75.3 µM (inactive) | 61.2 µM (inactive) |  |
| O=C(CP(c1ccccc1)c1ccccc1)c1cccc(C(=O)CP(c2ccccc2)c2ccccc2)c1 |  | 70.3 µM (inactive) | 37.2 µM (inactive) | 12.5 µM (inactive) | 16.2 µM (inactive) | > 100 µM (inactive) | 58.5 µM (inactive) | 80.9 µM (inactive) | 8.2 µM (inactive) | 45.7 µM (inactive) | 56.8 µM (inactive) | 12.1 µM (inactive) | 96.6 µM (inactive) |  | 92 µM (inactive) | 8.02 µM (inactive) | 84.1 µM (inactive) | 14.2 µM (inactive) | > 100 µM (inactive) |  |
| Cc1cc(NS(=O)(=O)c2ccc(NC(NC(=O)OC(C)C)(C(F)(F)F)C(F)(F)F)cc2)nc(C)n1 | > 100 µM (inactive) | > 100 µM (inactive) | > 100 µM (inactive) |  | > 100 µM (inactive) | > 100 µM (inactive) | > 100 µM (inactive) | > 100 µM (inactive) | > 100 µM (inactive) | > 100 µM (inactive) | > 100 µM (inactive) | > 100 µM (inactive) | > 100 µM (inactive) | > 100 µM (inactive) | > 100 µM (inactive) | > 100 µM (inactive) | > 100 µM (inactive) | 60.7 µM (inactive) | > 100 µM (inactive) |  |
| COC(=O)c1ccccc1/C=C1/Cc2ccccc2C1=O | 50.5 µM (inactive) | 55.8 µM (inactive) | 48.2 µM (inactive) | 50.6 µM (inactive) | 30.1 µM (inactive) | > 100 µM (inactive) | 29.7 µM (inactive) | > 100 µM (inactive) | 37.9 µM (inactive) | > 100 µM (inactive) | 17.4 µM (inactive) | 30 µM (inactive) | 98.4 µM (inactive) | 23.8 µM (inactive) | 65.5 µM (inactive) | 32.7 µM (inactive) | 39.2 µM (inactive) | 19.6 µM (inactive) | 36.5 µM (inactive) |  |
| Cc1ccc(C(=O)Nc2ccc(S(=O)(=O)O)c3cc(S(=O)(=O)O)cc(S(=O)(=O)O)c23)cc1NC(=O)c1cccc(N)c1 | 1.05 µM (active) |  | > 100 µM (inactive) | > 100 µM (inactive) | > 100 µM (inactive) | > 100 µM (inactive) | > 100 µM (inactive) | > 100 µM (inactive) | > 100 µM (inactive) |  | > 100 µM (inactive) | > 100 µM (inactive) | > 100 µM (inactive) | > 100 µM (inactive) | > 100 µM (inactive) | > 100 µM (inactive) | > 100 µM (inactive) | > 100 µM (inactive) | > 100 µM (inactive) | > 100 µM (inactive) |
| CCN(CC)c1ccc(NC(=S)NN(C)C)cc1 | > 10 µM (inactive) | > 10 µM (inactive) | > 10 µM (inactive) | > 10 µM (inactive) | > 10 µM (inactive) | > 10 µM (inactive) | > 10 µM (inactive) | > 10 µM (inactive) | > 10 µM (inactive) | > 10 µM (inactive) | > 10 µM (inactive) | > 10 µM (inactive) | > 10 µM (inactive) | > 10 µM (inactive) | > 10 µM (inactive) | > 10 µM (inactive) | > 10 µM (inactive) | > 10 µM (inactive) | > 10 µM (inactive) |  |
| CC1=Nc2c(ccc3c2C(=O)c2ccccc2C3=O)NC(c2cccc3c2CCC3)C1 (stereo not given) | > 100 µM (inactive) |  |  | 4.72 µM (inactive) | 1.58 µM (inactive) | > 100 µM (inactive) | > 100 µM (inactive) | > 100 µM (inactive) | > 100 µM (inactive) |  | > 100 µM (inactive) | > 100 µM (inactive) | > 73.8 µM (inactive) | > 90.4 µM (inactive) | > 100 µM (inactive) | 21.4 µM (inactive) | 25.3 µM (inactive) |  |  |  |
| CCOC(=O)c1c(-c2ccccc2)nc2ccccc2c1O | > 100 µM (inactive) | > 100 µM (inactive) | > 100 µM (inactive) | > 100 µM (inactive) | > 100 µM (inactive) |  | > 100 µM (inactive) | > 100 µM (inactive) | > 100 µM (inactive) |  |  | > 100 µM (inactive) | > 100 µM (inactive) |  | > 100 µM (inactive) | > 100 µM (inactive) | > 100 µM (inactive) | > 100 µM (inactive) | > 100 µM (inactive) |  |
| CCOC(=O)c1nc2ccccc2nc1NCc1ccc(OC)cc1 | > 100 µM (inactive) |  |  | > 100 µM (inactive) | > 100 µM (inactive) | > 100 µM (inactive) | 64.3 µM (inactive) | > 100 µM (inactive) | 96.4 µM (inactive) | > 100 µM (inactive) |  | > 100 µM (inactive) | > 100 µM (inactive) | > 100 µM (inactive) | > 100 µM (inactive) | > 100 µM (inactive) | > 100 µM (inactive) | 80.9 µM (inactive) | 68.1 µM (inactive) | > 100 µM (inactive) |
| CCCC(OCC)(OCC)OCC | > 100 µM (inactive) |  |  | > 100 µM (inactive) | > 100 µM (inactive) | > 100 µM (inactive) | > 100 µM (inactive) | > 100 µM (inactive) | > 100 µM (inactive) |  | > 100 µM (inactive) | > 100 µM (inactive) | > 100 µM (inactive) | > 100 µM (inactive) | > 100 µM (inactive) | > 100 µM (inactive) | > 100 µM (inactive) |  |  |  |
| Cc1ccccc1NC(=N)Nc1ccccc1C | > 100 µM (inactive) | > 100 µM (inactive) | > 100 µM (inactive) |  | > 100 µM (inactive) | > 100 µM (inactive) | > 100 µM (inactive) | > 100 µM (inactive) | > 100 µM (inactive) | > 100 µM (inactive) | > 100 µM (inactive) | > 100 µM (inactive) | > 100 µM (inactive) | > 100 µM (inactive) | > 100 µM (inactive) | > 100 µM (inactive) | > 100 µM (inactive) | > 100 µM (inactive) | > 100 µM (inactive) |  |
| C[C@]12C=CC(=O)C=C1CC[C@H]1[C@@H]3C[C@@H](O)[C@](O)(C(=O)CO)[C@@]3(C)C[C@H](O)[C@@]12F [TRIAMCINOLONE] | > 100 µM (inactive) |  |  | > 100 µM (inactive) | > 100 µM (inactive) | > 100 µM (inactive) | > 100 µM (inactive) | > 100 µM (inactive) | > 100 µM (inactive) |  | > 100 µM (inactive) | > 100 µM (inactive) | > 100 µM (inactive) | > 100 µM (inactive) | > 100 µM (inactive) | > 100 µM (inactive) | > 100 µM (inactive) |  |  |  |
| O=C(Nc1nc2ccccc2n1Cc1ccc(Cl)cc1)NC12CC3CC(CC(C3)C1)C2 | 19.1 µM (inactive) |  |  | 48 µM (inactive) | > 100 µM (inactive) | 24.3 µM (inactive) | 20.7 µM (inactive) | 4.12 µM (inactive) | 74.3 µM (inactive) |  | 28.4 µM (inactive) | 36.2 µM (inactive) | 17.1 µM (inactive) | 22.6 µM (inactive) | 16 µM (inactive) | 32.3 µM (inactive) | 35.7 µM (inactive) |  |  |  |
| C=CCOc1cc2c(cc1C(C)c1ccc(OC)cc1)OCO2 (stereo not given) | 0.647 µM (active) | 0.337 µM (active) | 0.352 µM (active) | 0.583 µM (active) | 0.196 µM (active) | 0.333 µM (active) | 0.447 µM (active) | 4.88 µM (inactive) | 0.286 µM (active) | 0.251 µM (active) | 0.849 µM (active) | 0.471 µM (active) | 0.495 µM (active) | 0.429 µM (active) | > 100 µM (inactive) | 0.39 µM (active) | 0.612 µM (active) |  |  |  |
